Measured values from patent publication US11155668B2, “Contact-killing, QAC functionalized thermoplastic polyurethane for catheter applications” (THE UNIVERSITY OF AKRON, priority 2017, dated 2021).

Experiments:
[1] = tested on: E. coli; test: Antimicrobial testing using ISO22196 protocol on compression molded samples; type: cell-based; conditions: surface functionalized (covalently attached QAC) sample; FIG. 7B
[2] = tested on: E. coli; test: Contact-killing assay (adapted from ISO 22196) on allyl-TPU blade-coated samples modified with Qx-SH; type: cell-based, Escherichia coli (ATCC 25922); conditions: for Mean CFU/Sample Recovered, E. coli: n = 2
Experimental: (§1) To functionalize the allyl-TPU blade-coated samples with Qx-SH reagents, thiol-ene reactions were performed using the same procedure described for rhodamine-SH. Briefly, blade-coated films of allyl-TPU (250 μm thick, 2.0 cm diameter, ca. 110 mg, 20 μmol allyl) were submerged in 2 mL of an Ar purged (30 min) aqueous solution containing Qx-SH (10.0 mM) and LAP (5.0 mM), and allowed to pre-soak for 30 min under Ar. UV-treated samples were irradiated for 30 min (λ=365 nm, I=1.2 mW·cm^−2) while phys. ads. samples were kept in the absence of UV light for 30 min to control for any antimicrobial activity that is contributed by non-covalently attached QAC. Following treatment, the dye/photoinitiator solutions were drawn up and discarded, and the samples were rinsed with 5 mL of DI water (3×) then submerged in 5 mL of DI water. The samples were further rinsed with 10% EtOH (3×) and soaked in 10% EtOH for 15 min (3×), rinsing with 10% EtOH in between each soak.
(§2) For antimicrobial testing, blade-coated samples and catheter tubing of allyl-TPU were sterilized by EtO sterilization using an Anprolene benchtop sterilizer (Anderson Products, Inc., Haw River, N.C.) following the manufacturer's protocol to deliver approximately 0.5 cc·L^−1 of EtO gas over a 12 h sterilization cycle at 35% humidity and room temperature, followed by a 48 h purge under vacuum. The bacterial strains used in this study included Staphylococcus epidermidis (ATCC 12228), Staphylococcus aureus (25923), Escherichia coli (ATCC 25922), Pseudomonas aeruginosa (ATCC 27853), Enterococcus faecalis (ATCC 29212), and methicillin-resistant Staphylococcus aureus (MRSA) (ATCC BAA-41).
The contact-killing assay was performed on physically adsorbed (phys. ads.), and UV-treated blade-coated samples modified with a series of Qx-SH reagents using a method adapted from ISO 22196. See, International Organization for Standardization. Measurement of antibacterial activity on plastics and other non porous surfaces (ISO 22196:2011), the disclosure of which is incorporated herein by reference in its entirety. Briefly, the samples were inoculated with same day cultures of select bacteria (e.g. E. coli, S. epidermidis) in dilute nutrient media (0.2% tryptic soy broth (TSB) in 1× phosphate buffered saline (PBS)) at approximately 150 colony-forming units (CFU)·mm^−2. Generally, 35 uL of 8.5×10^5 CFU/mL cultures were dispersed across the surface of the sample using sterile polypropylene cover films (area=198 mm^2). […] Following incubation, surviving cells were recovered from the samples using vigorous agitation (i.e. vortexing for 20 s in PBS). Surviving cells were enumerated via 10-fold series dilution and plating 100 μL onto tryptic soy agar (TSA), incubating overnight and then plate counting CFU. The mean CFU recovered per sample (CFU/sample) were calculated by accounting for dilutions. Internal controls samples of polypropylene and chlorhexidine treated with polypropylene were included in the assay.

[3] = tested on: S. epidermidis; test: as above; type: cell-based, Staphylococcus epidermidis (ATCC 12228); conditions: n = 2
Experimental: as §1, §2
(§3) The contact-killing assay was performed on physically adsorbed (phys. ads.), and UV-treated blade-coated samples modified with a series of Qx-SH reagents using a method adapted from ISO 22196. See, International Organization for Standardization. Measurement of antibacterial activity on plastics and other non porous surfaces (ISO 22196:2011), the disclosure of which is incorporated herein by reference in its entirety. Briefly, the samples were inoculated with same day cultures of select bacteria (e.g. E. coli, S. epidermidis) in dilute nutrient media (0.2% tryptic soy broth (TSB) in 1× phosphate buffered saline (PBS)) at approximately 150 colony-forming units (CFU)·mm^−2. Generally, 35 uL of 8.5×10^5 CFU/mL cultures were dispersed across the surface of the sample using sterile polypropylene cover films (area=198 mm^2). Inoculated samples were incubated in a humidified room air incubator (36° C., ca. 80% rel. humidity) for 20 h. Following incubation, surviving cells were recovered from the samples using vigorous agitation (i.e. vortexing for 20 s in PBS). Surviving cells were enumerated via 10-fold series dilution and plating 100 μL onto tryptic soy agar (TSA), incubating overnight and then plate counting CFU. The mean CFU recovered per sample (CFU/sample) were calculated by accounting for dilutions. Internal controls samples of polypropylene and chlorhexidine treated with polypropylene were included in the assay.

[4] = tested on: MRSA; test: as above; type: cell-based; conditions: n = 1
Experimental: as §1, §2, §3

[5] = tested on: E. faecalis; test: as above; type: cell-based, Enterococcus faecalis (ATCC 29212); conditions: n = 1
Experimental: as §1, §2, §3

[6] = tested on: P. aeruginosa; test: as above; type: cell-based, Pseudomonas aeruginosa (ATCC 27853); conditions: for Mean CFU/Sample Recovered, P. aeruginosa: n = 1
Experimental: as §1, §2, §3

[7] = UV-treated samples, negative control polypropylene 2.04 (±0.06) × 10^6
[8] = phys. ads. samples, negative control polypropylene 2.04 (±0.06) × 10^6
[9] = UV-treated samples, negative control polypropylene 0.93 (±0.03) × 10^5
[10] = phys. ads. samples, negative control polypropylene 0.93 (±0.03) × 10^5
[11] = UV-treated samples, negative control polypropylene 1.51 × 10^5
[12] = phys. ads. samples, negative control polypropylene 1.51 × 10^5
[13] = UV-treated samples, negative control polypropylene 1.70 × 10^5
[14] = phys. ads. samples, negative control polypropylene 1.70 × 10^5
[15] = UV-treated samples, negative control polypropylene 7.94 × 10^6
[16] = phys. ads. samples, negative control polypropylene 7.94 × 10^6
[17] = UV-treated samples, 24 h contact-killing assay
[18] = positive control (chlorhexidine treated polypropylene)

Structure (SMILES) | log reduction, activity against E. coli [1] | Mean CFU/Sample Recovered, E. coli [2, 7] | Mean CFU/Sample Recovered, E. coli [2, 8] | Mean CFU/Sample Recovered, S.epidermidis [3, 9] | Mean CFU/Sample Recovered, S.epidermidis [3, 10] | Mean CFU/Sample Recovered, MRSA [4, 11] | Mean CFU/Sample Recovered, MRSA [4, 12] | Mean CFU/Sample Recovered, E. faecalis [5, 13] | Mean CFU/Sample Recovered, E. faecalis [5, 14] | Mean CFU/Sample Recovered, P. aeruginosa [6, 15] | Mean CFU/Sample Recovered, P. aeruginosa [6, 16] | log reduction in E. coli compared to the negative control [2, 17] | reduction in E. coli compared to the negative control [2, 17] | reduction of P. aeruginosa ([6]; UV-treated samples) | Mean CFU/Sample Recovered, E. coli [2, 18] | Mean CFU/Sample Recovered, S.epidermidis [3, 18] | Mean CFU/Sample Recovered, MRSA [4, 18] | Mean CFU/Sample Recovered, E. faecalis [5, 18] | Mean CFU/Sample Recovered, P. aeruginosa [6, 18]
CCCCCCCCCCCCCC[N+](C)(C)CCCCCCCCOC(=O)CCSSCCC(=O)OCCCCCCCC[N+](C)(C)CCCCCCCCCCCCCC.[Cl-].[Cl-] [8-Q14-S-S] | 6 log | – | – | – | – | – | – | – | – | – | – | – | – | – | – | – | – | – | –
CCCCCCCCCCCCCC[N+](C)(C)CCCCCCCCOC(=O)CCS.[Cl-] [Q14-SH] | – | 6.61 (±0.01) × 10^5 CFU/Sample | 6.03 (±0.03) × 10^5 CFU/Sample | 0.00 ± 0.00 CFU/Sample | 0.00 ± 0.00 CFU/Sample | 1.00 × 10^2 CFU/Sample | 0.00 CFU/Sample | 0.00 CFU/Sample | 0.00 CFU/Sample | 5.25 × 10^6 CFU/Sample | 4.79 × 10^6 CFU/Sample | – | – | – | – | – | – | – | –
CCCCCCCCCCCC[N+](C)(C)CCCCCCCCOC(=O)CCS.[Cl-] [Q12-SH] | – | 0.00 ± 0.00 CFU/Sample | 1.17 (±0.41) × 10^3 CFU/Sample | 0.00 ± 0.00 CFU/Sample | 0.00 ± 0.00 CFU/Sample | 0.00 CFU/Sample | 0.00 CFU/Sample | 0.00 CFU/Sample | 0.00 CFU/Sample | 0.00 CFU/Sample | 7.24 × 10^5 CFU/Sample | 6 log | 99.9999% | complete reduction | – | – | – | – | –
[H]/N=C(\N/C(=N/[H])NCCCCCCNC(=N)NC(=N)Nc1ccc(Cl)cc1)Nc1ccc(Cl)cc1 [Chlorhexidine, reference compound] | – | – | – | – | – | – | – | – | – | – | – | – | – | – | 0.00 ± 0.00 CFU/Sample | 0.00 ± 0.00 CFU/Sample | 0.00 CFU/Sample | 0.00 CFU/Sample | 0.00 CFU/Sample
